Target: Pol theta (1-899) (Homo sapiens (Human), UniProt O75417)
Experiment: Pol theta ATPase activity, NADH oxidation-coupled enzymatic assay
Assay type: biochemical
Details: Pol theta (1-899) 10 nM, ATP, dT50 ssDNA, absorbance 340 nm, 10-point dilution series; read-out: ATPase NADH coupling:Standard Screening:hPolQ IC50
Method in brief: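 Pol theta (1-899), 10 nM, preincubated 15 min at RT with 10-point compound series in Tris pH 7.80/KCl/MgCl2 buffer, then given 100 μM ATP plus 300 nM dT50 ssDNA with PK/LDH-coupled NADH oxidation. A340 followed for 30 min; rate slopes fitted with a four-parameter model for IC50.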

Chain of Pol theta (1-899) (O75417 1-899): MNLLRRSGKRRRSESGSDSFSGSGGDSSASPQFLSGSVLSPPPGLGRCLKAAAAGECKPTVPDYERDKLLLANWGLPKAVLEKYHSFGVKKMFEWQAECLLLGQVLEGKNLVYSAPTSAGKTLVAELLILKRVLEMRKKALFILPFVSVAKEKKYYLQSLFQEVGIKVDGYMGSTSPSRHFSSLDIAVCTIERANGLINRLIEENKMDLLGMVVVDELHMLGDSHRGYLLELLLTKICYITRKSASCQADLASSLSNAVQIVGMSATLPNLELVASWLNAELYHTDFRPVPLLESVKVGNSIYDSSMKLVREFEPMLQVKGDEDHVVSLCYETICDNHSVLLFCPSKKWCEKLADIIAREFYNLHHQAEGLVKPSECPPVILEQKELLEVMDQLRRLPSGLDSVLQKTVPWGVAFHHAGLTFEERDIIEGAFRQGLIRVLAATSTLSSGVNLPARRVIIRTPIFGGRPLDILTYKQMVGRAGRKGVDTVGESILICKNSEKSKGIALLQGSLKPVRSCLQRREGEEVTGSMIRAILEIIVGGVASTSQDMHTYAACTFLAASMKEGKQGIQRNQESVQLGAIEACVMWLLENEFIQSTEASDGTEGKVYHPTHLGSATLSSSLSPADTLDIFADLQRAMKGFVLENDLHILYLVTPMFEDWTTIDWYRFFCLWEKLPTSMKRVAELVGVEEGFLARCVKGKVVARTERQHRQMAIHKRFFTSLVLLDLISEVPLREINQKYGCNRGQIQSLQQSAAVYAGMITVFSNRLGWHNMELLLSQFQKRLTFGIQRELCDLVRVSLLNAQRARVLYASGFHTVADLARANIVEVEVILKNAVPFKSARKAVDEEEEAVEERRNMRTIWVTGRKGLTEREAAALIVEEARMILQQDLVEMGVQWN

Row | SMILES | IC50 [µM]
1 | O=C(Nc1nnc(OCc2ccc(Cl)cc2)s1)c1cccnc1N1CCOc2ccccc21 [Example 66, N-(5-((4-chlorobenzyl)oxy)-1,3,4-thiadiazol-2-yl)-2-(2,3-dihydro-4H-benzo[b][1,4]oxazin-4-yl)nicotinamide] | 1 to 10
2 | COc1ccccc1-c1cc([C@@H](C)O)ncc1C(=O)Nc1nnc(OCc2ccc(Cl)cc2)s1 (racemic) [Example 167, N-[5-[(4-chlorophenyl)methoxy]-1,3,4-thiadiazol-2-yl]-6-(1-hydroxyethyl)-4-(2-methoxyphenyl)pyridine-3-carboxamide] | 0.2 to 0.5
3 | Cc1n[nH]c(C)c1-c1cnccc1C(=O)Nc1nnc(OCc2ccc(Cl)cc2)s1 [Example 140, N-[5-[(4-chlorophenyl)methoxy]-1,3,4-thiadiazol-2-yl]-3-(3,5-dimethyl-1H-pyrazol-4-yl)pyridine-4-carboxamide] | ≤ 0.2
4 | N#Cc1cnc(N2CCOCC2)c(C(=O)Nc2nnc(OCc3ccc(Cl)cn3)s2)c1 [Example 33, N-(5-((5-chloropyridin-2-yl)methoxy)-1,3,4-thiadiazol-2-yl)-5-cyano-2-morpholinonicotinamide] | 0.5 to 1
5 | O=C(Nc1nnc(OCc2ccc(Cl)cc2)s1)c1ccncc1-c1cccc2c1OC(F)(F)O2 [Example 121, N-(5-((4-chlorobenzyl)oxy)-1,3,4-thiadiazol-2-yl)-3-(2,2-difluorobenzo[d][1,3]dioxol-4-yl)isonicotinamide] | ≤ 0.2
6 | C[C@H]1COCCN1c1ncccc1C(=O)Nc1nnc(OCc2ccc(Cl)cc2)s1 [Example 10, (S)—N-(5-((4-chlorobenzyl)oxy)-1,3,4-thiadiazol-2-yl)-2-(3-methyl-morpholino)nicotinamide] | 0.5 to 1
7 | O=C(Nc1nnc(OCc2ccc(Cl)cc2)s1)c1cccnc1N1CCOCC1 [Example 2, N-(5-((4-chlorobenzyl)oxy)-1,3,4-thiadiazol-2-yl)-2-morpholinonicotinamide] | 0.5 to 1
8 | COc1ccccc1-c1cc(C)ncc1C(=O)Nc1nnc(OCc2cc(F)ccn2)s1 [Example 199, N-(5-((4-fluoropyridin-2-yl)methoxy)-1,3,4-thiadiazol-2-yl)-4-(2-methoxyphenyl)-6-methylnicotinamide] | 0.2 to 0.5
9 | COc1ccccc1-c1cnccc1C(=O)Nc1nnc(OCc2ccc(Cl)cc2)s1 [Example 95, N-(5-((4-chlorobenzyl)oxy)-1,3,4-thiadiazol-2-yl)-3-(2-methoxyphenyl)isonicotinamide] | ≤ 0.2
10 | CC(=O)N1CCN(c2ncccc2C(=O)Nc2nnc(OCc3ccc(Cl)cc3)s2)CC1 [Example 16, 2-(4-acetylpiperazin-1-yl)-N-(5-((4-chlorobenzyl)oxy)-1,3,4-thiadiazol-2-yl)nicotinamide] | 1 to 10
11 | C[C@@H]1COC[C@@H](C)N1c1cnccc1C(=O)Nc1nnc(OCc2ccc(Cl)cn2)s1 [Example 188, N-(5-((5-chloropyridin-2-yl)methoxy)-1,3,4-thiadiazol-2-yl)-3-((3R,5R)-3,5-dimethylmorpholino)isonicotinamide] | ≤ 0.2
12 | N#Cc1ccc(C(=O)Nc2nnc(OCc3ccc(Br)cc3)s2)c(N2CCNC(=O)C2)n1 [Example 88, N-(5-((4-bromobenzyl)oxy)-1,3,4-thiadiazol-2-yl)-6-cyano-2-(3-oxopiperazin-1-yl)nicotinamide] | ≤ 0.2
13 | O=C(Nc1nnc(OCc2ccc(Cl)nc2)s1)c1cccnc1N1CCOCC1 [Example 8, N-(5-((6-chloropyridin-3-yl)methoxy)-1,3,4-thiadiazol-2-yl)-2-morpholinonicotinamide] | 1 to 10
14 | COc1ccccc1-c1cc(C)ncc1C(=O)Nc1nnc(OCc2ccc(Cl)c3[nH]ncc23)s1 [Example 213, N-[5-[(7-chloro-1H-indazol-4-yl)methoxy]-1,3,4-thiadiazol-2-yl]-4-(2-methoxyphenyl)-6-methylpyridine-3-carboxamide] | ≤ 0.2
15 | COc1ccc(CO)cc1-c1cc(C)ncc1C(=O)Nc1nnc(OCc2ccc(Cl)cn2)s1 [Example 200, N-(5-((5-chloropyridin-2-yl)methoxy)-1,3,4-thiadiazol-2-yl)-4-(5-(hydroxymethyl)-2-methoxyphenyl)-6-methylnicotinamide] | ≤ 0.2
16 | COc1ccccc1-n1cncc1C(=O)Nc1nnc(OCc2ccc(Cl)cc2)s1 [Example 50, N-(5-((4-chlorobenzyl)oxy)-1,3,4-thiadiazol-2-yl)-1-(2-methoxyphenyl)-1H-imidazole-5-carboxamide] | ≤ 0.2
17 | O=C(Nc1nnc(OCc2ccc(Cl)cc2)s1)c1cccnc1N1CCN(CCO)C(=O)C1 [Example 68, N-(5-((4-chlorobenzyl)oxy)-1,3,4-thiadiazol-2-yl)-2-(4-(2-hydroxyethyl)-3-oxopiperazin-1-yl)nicotinamide] | 1 to 10
18 | Cc1cn[nH]c1-c1cnccc1C(=O)Nc1nnc(OCc2ccc(Cl)cc2)s1 [Example 118, N-(5-((4-chlorobenzyl)oxy)-1,3,4-thiadiazol-2-yl)-3-(4-methyl-1H-pyrazol-5-yl)isonicotinamide] | 0.2 to 0.5

Row | SMILES | IC50 [µM]
19 | COc1ccccc1-c1cnncc1C(=O)Nc1nnc(OCc2ccc(Cl)cn2)s1 [Example 106, N-(5-((5-chloropyridin-2-yl)methoxy)-1,3,4-thiadiazol-2-yl)-5-(2-methoxyphenyl)pyridazine-4-carboxamide] | ≤ 0.2
20 | COc1ccccc1-c1ccncc1C(=O)Nc1nnc(OCC2CC2)s1 [Example 90, N-(5-(cyclopropylmethoxy)-1,3,4-thiadiazol-2-yl)-4-(2-methoxyphenyl)nicotinamide] | 0.5 to 1
21 | Cc1n[nH]cc1-c1cnccc1C(=O)Nc1nnc(OCc2ccc(Cl)cc2)s1 [Example 162, N-(5-((4-chlorobenzyl)oxy)-1,3,4-thiadiazol-2-yl)-3-(3-methyl-1H-pyrazol-4-yl)isonicotinamide] | ≤ 0.2
22 | O=C(Nc1nnc(OCc2ccc(Cl)cc2)s1)c1cnccc1N1CCN(CCN2CCOCC2)C(=O)C1 [Example 83, N-[5-[(4-chlorophenyl)methoxy]-1,3,4-thiadiazol-2-yl]-4-[4-[2-(morpholin-4-yl)ethyl]-3-oxopiperazin-1-yl]pyridine-3-carboxamide] | 0.5 to 1
23 | Cn1cc(-c2ccncc2C(=O)Nc2nnc(OCc3ccc(Cl)cc3)s2)ccc1=O [Example 122, N-(5-((4-chlorobenzyl)oxy)-1,3,4-thiadiazol-2-yl)-1-methyl-6-oxo-1,6-dihydro-[3,4′-bipyridine]-3′-carboxamide] | ≤ 0.2
24 | COc1ccccc1-c1cc(CCC#N)ncc1C(=O)Nc1nnc(OCc2ccc(Cl)cc2)s1 [Example 164, N-[5-[(4-chlorophenyl)methoxy]-1,3,4-thiadiazol-2-yl]-6-(2-cyanoethyl)-4-(2-methoxyphenyl)pyridine-3-carboxamide] | ≤ 0.2
25 | COc1ccccc1-c1cnc(CC#N)cc1C(=O)Nc1nnc(OCc2ccc(Cl)cc2)s1 [Example 137, N-[5-[(4-chlorophenyl)methoxy]-1,3,4-thiadiazol-2-yl]-2-(cyanomethyl)-5-(2-methoxyphenyl)pyridine-4-carboxamide] | ≤ 0.2
26 | O=C(Nc1nnc(OCc2ccc(Cl)cc2)s1)c1cnccc1-c1ccccc1OC1CC1 [Example 93, N-(5-((4-chlorobenzyl)oxy)-1,3,4-thiadiazol-2-yl)-4-(2-cyclopropoxyphenyl)nicotinamide] | ≤ 0.2
27 | COc1cccc(F)c1-c1cnccc1C(=O)Nc1nnc(OCc2ccc(Cl)cc2)s1 [Example 124, N-(5-((4-chlorobenzyl)oxy)-1,3,4-thiadiazol-2-yl)-3-(2-fluoro-6-methoxyphenyl)isonicotinamide] | ≤ 0.2
28 | O=C(Nc1nnc(OCc2ccc(Cl)cc2)s1)c1ccncc1N1CCOCC1 [Example 59, N-(5-((4-chlorobenzyl)oxy)-1,3,4-thiadiazol-2-yl)-3-morpholinoisonicotinamide] | 0.2 to 0.5
29 | Cn1cc(-c2ncccc2C(=O)Nc2nnc(OCc3ccc(Cl)cc3)s2)ccc1=O [Example 80, N-(5-((4-chlorobenzyl)oxy)-1,3,4-thiadiazol-2-yl)-1′-methyl-6′-oxo-1′,6′-dihydro-[2,3′-bipyridine]-3-carboxamide] | 0.2 to 0.5
30 | COc1ccccc1-c1cnc(C)cc1C(=O)Nc1nnc(OCc2ccc(Cl)cn2)s1 [Example 191, N-[5-[(5-chloropyridin-2-yl)methoxy]-1,3,4-thiadiazol-2-yl]-5-(2-methoxyphenyl)-2-methylpyridine-4-carboxamide] | 0.2 to 0.5
31 | O=C(Nc1nnc(OCc2ccc(Cl)cc2)s1)c1c[nH]c(=O)cc1N1CCOCC1 [Example 41, N-(5-((4-chlorobenzyl)oxy)-1,3,4-thiadiazol-2-yl)-4-morpholino-6-oxo-1,6-dihydropyridine-3-carboxamide or its tautomer N-(5-((4-chlorobenzyl)oxy)-1,3,4-thiadiazol-2-yl)-6-hydroxy-4-morpholinonicotinamide] | 1 to 10
32 | COc1cnccc1-c1cnccc1C(=O)Nc1nnc(OCc2ccc(Cl)cc2)s1 [Example 131, N-(5-((4-chlorobenzyl)oxy)-1,3,4-thiadiazol-2-yl)-3′-methoxy-[3,4′-bipyridine]-4-carboxamide] | ≤ 0.2
33 | O=C(Nc1nnc(OCc2ccc(Cl)cc2)s1)c1cccnc1C1=CCOCC1 [Example 53, N-(5-((4-chlorobenzyl)oxy)-1,3,4-thiadiazol-2-yl)-2-(3,6-dihydro-2H-pyran-4-yl)nicotinamide] | 0.5 to 1
34 | COc1ccccc1-c1cc(C#N)ncc1C(=O)Nc1nnc(OCc2ccc(Cl)cn2)s1 [Example 96, N-(5-((5-chloropyridin-2-yl)methoxy)-1,3,4-thiadiazol-2-yl)-6-cyano-4-(2-methoxyphenyl)nicotinamide] | ≤ 0.2
35 | COc1ccccc1-c1cc(C)ncc1C(=O)Nc1nnc(OCc2ccc(C3(C#N)CC3)cn2)s1 [Example 220, N-(5-[[5-(1-cyanocyclopropyl)pyridin-2-yl]methoxy]-1,3,4-thiadiazol-2-yl)-4-(2-methoxyphenyl)-6-methylpyridine-3-carboxamide] | ≤ 0.2

From patent US12509454B2, “Thiadiazolyl derivatives” (IDEAYA Biosciences, Inc., priority 2019, dated 2025)
